Common to all, as to format: cell-based, human
Experiment [1] deals with PC3 cells. Kind of experiment: Reactive oxygen species production (H2DCFDA). The settings on record: PC3, C6 at IC50 and IC75, 24 h. The method, then:
The production of reactive oxygen species (ROS) was evaluated using 2′,7′-dichlorodihydrofluorescein diacetate (H2DCFDA) (H2-DCF, DCF) (Invitrogen). Cells were pretreated with the antioxidant N-acetyl-L-cysteine (NAC; 5 mM) (Sigma) for 30 min before C6 was added. After 24 h of C6 treatment, cells were harvested and viable cells were counted by trypan blue dye exclusion. Then cells were washed, stained with 1 μM H2DCFDA for 30 min at 37° C., and finally ROS production was analyzed by flow cytometry.

Experiment [2] deals with DU145 prostate cancer cell line. Kind of experiment: Cytotoxicity assay (MTT, 72 h). The settings on record: DU145, MTT after 72 h, mean (SD); read-out: Half-maximal inhibitory concentration (IC50).
Experiment [3] deals with cisplatin- and doxorubicin-resistant A2780cis clone. Kind of experiment: Cytotoxicity assay (MTT, 72 h).
In experiment [4] the test system is cisplatin-resistant R-ME-180 clone. Briefly: Cytotoxicity assay (MTT, 72 h).
In experiment [5] the test system is PC3 prostate cancer cell line. Kind of experiment: Cytotoxicity assay (MTT, 72 h).
Experiment [6] relates to A549 lung cancer cell line. Briefly: Cytotoxicity assay (MTT, 72 h). The settings on record: A549, MTT after 72 h, mean (SD); read-out: Half-maximal inhibitory concentration (IC50).
Experiment [7] relates to MCF-7 breast cancer cell line. Briefly: Cytotoxicity assay (MTT, 72 h). The conditions noted are these: MCF-7, MTT after 72 h, mean (SD); read-out: Half-maximal inhibitory concentration (IC50).

Several values for one entry are separate records, joined by “and”; a condition that tells them apart may be missing. Equal entries are not always repeated.

Take `C[N+](C)=C1[S][Au-]2([S]1)[n+]1ccc[n+]3c1-c1[n+]2ccc[n+]1[Au-]31[S]C(=[N+](C)C)[S]1.[Cl-].[Cl-].[Cl-].[Cl-]` [C6, [Au2(BPM)(DMDTC)2]Cl4]: in experiment [1], the ROS production result is reported as “induced ROS production in a dose-dependent manner”. Also, the IC50 in experiment [2] was 700 nM; in experiment [3] (A2780cis, MTT after 72 h, mean (SD)), 300 nM; in experiment [4] (R-ME-180, MTT after 72 h, mean (SD)), 4.9 µM; in experiment [5] (PC3, MTT after 72 h, mean (SD), read-out: Half-maximal inhibitory concentration (IC50)), 600 nM and 620 nM; in experiment [6], 800 nM; in experiment [7], 500 nM. Further, in experiment [3] (IC50 A2780cis / IC50 A2780), the “FR (A2780cis/A2780), fold resistance” value stood at 1.2. In addition, the “FR (R-ME-180/ME-180), fold resistance” value in experiment [4] (IC50 R-ME-180 / IC50 ME-180) is given as 0.9. This molecule also came in with an IC25 in experiment [5] (PC3) of 0.31 µM. The IC75 in experiment [5] (PC3) is 1.85 µM.
